# Test results from US9737535B2, “Methods for treating cancer using TOR kinase inhibitor combination therapy comprising administering substituted pyrazino[2,3-b]pyrazines” (Signal Pharmaceuticals, LLC, priority 2014, dated 2017).
# System: MCF7
# Assay: Anti-proliferation assay (ATPLite), Chalice synergy score
# Type: cell-based
# Conditions: Compound 1 in combination with second active agent, mean self-cross + 2σ threshold 3.07
# Source text: (§1) Cells were thawed from a liquid nitrogen preserved state.
# (§2) The calculation for synergy score is provided below.
# (§3) If T≧V0:100*[1−(T−V0)/(V−V0)]
row,Compound,Synergy score
1,OCCn1cc(-c2ccc3c(c2)CC/C3=N\O)c(-c2ccncc2)n1 [GDC-0879],0.11
2,CN(C)CCCn1cc(C2=C(c3c[nH]c4ccccc34)C(=O)NC2=O)c2ccccc21 [GF 109203X],0.35
3,CNC(=O)c1ccc(-c2cnc3ncc(Cc4ccc5ncccc5c4)n3n2)cc1F [INCB28060],0.92

# System: HCC70
# Assay: as above
# Type: cell-based
# Conditions: Compound 1 in combination with second active agent; HCC-70; mean self-cross + 2σ threshold 3.45
# Source text: as §1, §2, §3
row,Compound,Synergy score
1,OCCn1cc(-c2ccc3c(c2)CC/C3=N\O)c(-c2ccncc2)n1 [GDC-0879],0.43
2,CN(C)CCCn1cc(C2=C(c3c[nH]c4ccccc34)C(=O)NC2=O)c2ccccc21 [GF 109203X],4.47
3,CNC(=O)c1ccc(-c2cnc3ncc(Cc4ccc5ncccc5c4)n3n2)cc1F [INCB28060],0.75

# System: BT-549
# Assay: as above
# Type: cell-based
# Conditions: Compound 1 in combination with the named second active agent, 72 h, mean of n = 3 experiments in triplicate
# Source text: as §1, §2, §3
row,Compound,Synergy score
1,OCCn1cc(-c2ccc3c(c2)CC/C3=N\O)c(-c2ccncc2)n1 [GDC-0879],0.08
2,CN(C)CCCn1cc(C2=C(c3c[nH]c4ccccc34)C(=O)NC2=O)c2ccccc21 [GF 109203X],1.73
3,CNC(=O)c1ccc(-c2cnc3ncc(Cc4ccc5ncccc5c4)n3n2)cc1F [INCB28060],0.66

# System: Hs-578-T
# Assay: as above
# Type: cell-based
# Conditions: Compound 1 in combination with second active agent, mean self-cross + 2σ threshold 4.09
# Source text: as §1, §2, §3
row,Compound,Synergy score
1,OCCn1cc(-c2ccc3c(c2)CC/C3=N\O)c(-c2ccncc2)n1 [GDC-0879],0.75
2,CN(C)CCCn1cc(C2=C(c3c[nH]c4ccccc34)C(=O)NC2=O)c2ccccc21 [GF 109203X],2.35
3,CNC(=O)c1ccc(-c2cnc3ncc(Cc4ccc5ncccc5c4)n3n2)cc1F [INCB28060],0.85

# System: HCC-1806
# Assay: as above
# Type: cell-based
# Conditions: Compound 1 in combination with the named second active agent, 72 h, mean of n = 3 experiments in triplicate
# Source text: as §1, §2, §3
row,Compound,Synergy score
1,OCCn1cc(-c2ccc3c(c2)CC/C3=N\O)c(-c2ccncc2)n1 [GDC-0879],0.47
2,CN(C)CCCn1cc(C2=C(c3c[nH]c4ccccc34)C(=O)NC2=O)c2ccccc21 [GF 109203X],0.43
3,CNC(=O)c1ccc(-c2cnc3ncc(Cc4ccc5ncccc5c4)n3n2)cc1F [INCB28060],0.62

# System: HCC-1937
# Assay: as above
# Type: cell-based
# Conditions: Compound 1 in combination with the named second active agent, 72 h, mean of n = 3 experiments in triplicate
# Source text: as §1, §2, §3
row,Compound,Synergy score
1,OCCn1cc(-c2ccc3c(c2)CC/C3=N\O)c(-c2ccncc2)n1 [GDC-0879],0.29
2,CN(C)CCCn1cc(C2=C(c3c[nH]c4ccccc34)C(=O)NC2=O)c2ccccc21 [GF 109203X],3.03
3,CNC(=O)c1ccc(-c2cnc3ncc(Cc4ccc5ncccc5c4)n3n2)cc1F [INCB28060],0.71

# System: MDA-MB-231
# Assay: as above
# Type: cell-based
# Conditions: Compound 1 in combination with second active agent, mean self-cross + 2σ threshold 2.61
# Source text: as §1, §2, §3
row,Compound,Synergy score
1,OCCn1cc(-c2ccc3c(c2)CC/C3=N\O)c(-c2ccncc2)n1 [GDC-0879],0.54
2,CN(C)CCCn1cc(C2=C(c3c[nH]c4ccccc34)C(=O)NC2=O)c2ccccc21 [GF 109203X],2.28
3,CNC(=O)c1ccc(-c2cnc3ncc(Cc4ccc5ncccc5c4)n3n2)cc1F [INCB28060],0.34

# System: MDA-MB-468
# Assay: as above
# Type: cell-based
# Conditions: Compound 1 in combination with second active agent, mean self-cross + 2σ threshold 4.66
# Source text: as §1, §2, §3
row,Compound,Synergy score
1,OCCn1cc(-c2ccc3c(c2)CC/C3=N\O)c(-c2ccncc2)n1 [GDC-0879],0.44
2,CN(C)CCCn1cc(C2=C(c3c[nH]c4ccccc34)C(=O)NC2=O)c2ccccc21 [GF 109203X],10.60
3,CNC(=O)c1ccc(-c2cnc3ncc(Cc4ccc5ncccc5c4)n3n2)cc1F [INCB28060],0.80

# System: BT-474
# Assay: as above
# Type: cell-based
# Conditions: Compound 1 in combination with the named second active agent, 72 h, mean of n = 3 experiments in triplicate
# Source text: as §1, §2, §3
row,Compound,Synergy score
1,OCCn1cc(-c2ccc3c(c2)CC/C3=N\O)c(-c2ccncc2)n1 [GDC-0879],0.46
2,CN(C)CCCn1cc(C2=C(c3c[nH]c4ccccc34)C(=O)NC2=O)c2ccccc21 [GF 109203X],0.47
3,CNC(=O)c1ccc(-c2cnc3ncc(Cc4ccc5ncccc5c4)n3n2)cc1F [INCB28060],2.35

# System: MDA-MB-157
# Assay: as above
# Type: cell-based
# Conditions: Compound 1 in combination with second active agent, mean self-cross + 2σ threshold 4.68
# Source text: as §1, §2, §3
row,Compound,Synergy score
1,OCCn1cc(-c2ccc3c(c2)CC/C3=N\O)c(-c2ccncc2)n1 [GDC-0879],0.69
2,CN(C)CCCn1cc(C2=C(c3c[nH]c4ccccc34)C(=O)NC2=O)c2ccccc21 [GF 109203X],6.19
3,CNC(=O)c1ccc(-c2cnc3ncc(Cc4ccc5ncccc5c4)n3n2)cc1F [INCB28060],0.97

# System: HCC-1428
# Assay: as above
# Type: cell-based
# Conditions: Compound 1 in combination with the named second active agent, 72 h, mean of n = 3 experiments in triplicate
# Source text: as §1, §2, §3
row,Compound,Synergy score
1,OCCn1cc(-c2ccc3c(c2)CC/C3=N\O)c(-c2ccncc2)n1 [GDC-0879],0.13
2,CN(C)CCCn1cc(C2=C(c3c[nH]c4ccccc34)C(=O)NC2=O)c2ccccc21 [GF 109203X],0.47
3,CNC(=O)c1ccc(-c2cnc3ncc(Cc4ccc5ncccc5c4)n3n2)cc1F [INCB28060],0.75

# System: MDA-MB-436
# Assay: as above
# Type: cell-based
# Conditions: Compound 1 in combination with second active agent, mean self-cross + 2σ threshold 1.91
# Source text: as §1, §2, §3
row,Compound,Synergy score
1,OCCn1cc(-c2ccc3c(c2)CC/C3=N\O)c(-c2ccncc2)n1 [GDC-0879],0.13
2,CN(C)CCCn1cc(C2=C(c3c[nH]c4ccccc34)C(=O)NC2=O)c2ccccc21 [GF 109203X],2.60
3,CNC(=O)c1ccc(-c2cnc3ncc(Cc4ccc5ncccc5c4)n3n2)cc1F [INCB28060],0.49

# System: HCC-1187
# Assay: as above
# Type: cell-based
# Parameters: scale not given here
# Conditions: Compound 1 in combination with the named second active agent, 72 h, mean of n = 3 experiments in triplicate
# Source text: as §1, §2, §3
row,Compound,Synergy score
1,OCCn1cc(-c2ccc3c(c2)CC/C3=N\O)c(-c2ccncc2)n1 [GDC-0879],0.85
2,CN(C)CCCn1cc(C2=C(c3c[nH]c4ccccc34)C(=O)NC2=O)c2ccccc21 [GF 109203X],4.47
3,CNC(=O)c1ccc(-c2cnc3ncc(Cc4ccc5ncccc5c4)n3n2)cc1F [INCB28060],2.94

# System: HCC-1500
# Assay: as above
# Type: cell-based
# Parameters: scale not given here
# Conditions: Compound 1 in combination with the named second active agent, 72 h, mean of n = 3 experiments in triplicate
# Source text: as §1, §2, §3
row,Compound,Synergy score
1,OCCn1cc(-c2ccc3c(c2)CC/C3=N\O)c(-c2ccncc2)n1 [GDC-0879],0.91
2,CN(C)CCCn1cc(C2=C(c3c[nH]c4ccccc34)C(=O)NC2=O)c2ccccc21 [GF 109203X],3.41
3,CNC(=O)c1ccc(-c2cnc3ncc(Cc4ccc5ncccc5c4)n3n2)cc1F [INCB28060],0.52

# System: BT-20
# Assay: as above
# Type: cell-based
# Parameters: scale not given here
# Conditions: Compound 1 in combination with the named second active agent, 72 h, mean of n = 3 experiments in triplicate
# Source text: as §1, §2, §3
row,Compound,Synergy score
1,OCCn1cc(-c2ccc3c(c2)CC/C3=N\O)c(-c2ccncc2)n1 [GDC-0879],0.00
2,CN(C)CCCn1cc(C2=C(c3c[nH]c4ccccc34)C(=O)NC2=O)c2ccccc21 [GF 109203X],1.04
